Measured values as given in EP1787679A1, “Use of compounds binding to the sigma receptor for the treatment of diabetes-associated pain” (LABORATORIOS DEL DR. ESTEVE, S.A., priority 2005, dated 2007).

Test system: STZ-induced mice
Assay: von-Frey test, mechanical allodynia in streptozotocin (STZ)-induced diabetic mice
Assay type: in vivo
Conditions: paw withdrawal response to von-Frey filaments
Excerpt: The pancreatic β-cell cytotoxic agent STZ is widely used to induce diabetes in rodents. The glucosamine-nitrosourea compound STZ is taken up into the insulin-producing β-cells of the islets of Langerhan's via the GLUT-2 glucose transporter. The cytotoxic effect of STZ is mediated through a decrease in NAD levels, and the formation of intracellular free radicals leading to various toxic effects, including DNA-strand breaks (Schnedl et al., 1994). […] STZ-induced diabetic rodents show common features of human diabetes that include damage to the eye, kidney, blood vessels, and nervous system. Diabetic neuropathic pain occurs mainly due to the damage in the nervous system (Sima and Sugimoto, 1999).
Method: In the present study, diabetes is induced in mice by a single i.v. injection of STZ (200 mg/kg) as reported previously (Kamei et al., 1991; Rashid and Ueda, 2002). […] The plasma glucose level in the mice is measured in blood samples obtained from tail vein. […]
Thermal hyperalgesia and mechanical allodynia is measured at different time points (1-21 days) after STZ injection. Mechanical allodynia is measured using von-Frey filaments, a well-established method known by those skilled in the art, where the paw withdrawal response is measured. Similarly, thermal hyperalgesia is measured as the latency to paw withdrawal evoked by exposing the right hind paw to a thermal stimulus. […]

CN1CCN(CCc2ccc(Cl)c(Cl)c2)CC1 [BD-1063, 1-(3,4-dichlorophenethyl)-4-methylpiperazine]
mechanical allodynia in the von-Frey test: significantly antagonizes mechanical allodynia
